The record followed here is paper PMC10418366, “Fighting Celiac Disease: Improvement of pH Stability of Cathepsin L In Vitro by Computational Design” (International Journal of Molecular Sciences, 2023).

For this test, the target named is T1, rTcCathL1 (Tribolium castaneum cathepsin L) (Tribolium castaneum, UniProt D6X519).
T1 construct: gene AUGUSTUS-3.0.2_01950; mature enzyme after autocatalytic processing (pH 4.0, 37 °C) of recombinant proenzyme secreted by Pichia pastoris GS115 (pPICZalphaA); signal peptide and propeptide total 115 residues (stated for the model)
T1 sequence (D6X519 116-328): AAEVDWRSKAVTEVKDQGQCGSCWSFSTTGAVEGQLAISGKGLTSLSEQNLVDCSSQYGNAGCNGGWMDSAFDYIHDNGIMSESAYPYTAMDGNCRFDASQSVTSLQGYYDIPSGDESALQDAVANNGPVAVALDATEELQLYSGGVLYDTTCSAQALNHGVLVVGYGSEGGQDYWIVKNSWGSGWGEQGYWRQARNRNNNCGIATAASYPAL
The test is described as follows: active-site titration with irreversible inhibitor. The format is biochemical. The settings on record: covalent, 37 °C assay with Glp-Phe-Gln-pNA, 6 mM cysteine, 1 mM EDTA.

Regarding `CC(C)C[C@H](NC(=O)[C@H]1O[C@@H]1C(=O)O)C(=O)NCCCCN=C(N)N` [E-64], the “active-site titration with irreversible inhibitor” value is on record as “titration of peptidase active sites with the irreversible inhibitor E-64”.
